Experimental data published in paper PMC1977485, “The renal effects of N10-propargyl-5,8-dideazafolic acid (CB3717) and a non-nephrotoxic analogue ICI D1694, in mice” (British Journal of Cancer, 1991).
Each block holds one molecule with its values, some of them ahead of it.

Tests used:
C57/DBA2 mice [1] = assay: Histological examination of the kidney (H&E); format: in vivo
Text: Br .Cncr(91) 4 3-88?McilnPesLd,19 The renal effects of N1l-propargyl-5,8-dideazafolic acid (CB3717) and a non-nephrotoxic analogue ICI D1694, in mice D.I. Jodrell', D.R. Newelll,*, S.E. Morgan', S. Clinton2, J.P.M. Bensted2, L.R. Hughes3 & A.H. Calvertl,* 'Clinical Pharmacology Team, Drug Development Section, and 2Histopathology Section, Institute of Cancer Research, 15 Cotswold Road, Sutton, Surrey SM2 SNG; and 3ICI Pharmaceuticals, Mereside, Alderley Park, Macclesfield, Cheshire SKIO 4TG, UK. Summary N-(5-[N-(3,4-dihydro-2-methyl-4-oxoquinazolin-6-ylmethyl)-N-methylamino]-2-thenoyl)-L-glutamic acid (ICI D1694) is an analogue of the thymidylate synthase inhibitor, N'?-propargyl-5,8-dideazafolic acid (CB3717). […] Previous studies have shown ICI D1694 to be non-toxic to the kidney following a single administration but its renal effects after chronic administration are unknown. […] The '4C-inulin clearance assay developed was used to show a linear relationship between CB3717 dosage and renal damage (r=-0.989) following a single bolus dose (50-200mgkg-'), in mice. CB3717-induced renal damage is persistent (>6 weeks) and renal scarring was noted. […] However, the clinical use of CB3717 was limited by its nephrotoxicity, which was observ- ed in Phase I studies of both weekly (Vest et al., 1988) and 3-weekly administration schedules (Calvert et al., 1986; Sessa et al., 1988). Renal toxicity manifested primarily as a reduc- tion in glomerular filtration rate (GFR). However, tubular damage was also identified by the measurement of the urin- ary enzymes, N-acetyl glucosaminidase (NAG) and leucine aminopeptidase (LAP). […] In addition, urinary NAG and LAP levels were elevated in 50% of patients studied, although this elevation was not dose related (Calvert et al., 1986). CB3717-induced nephrotoxicity was thought to be due to the compound's relative insolubility at acid pH. […] To circumvent toxicity related to drug precipitation in the kidney, a series of more soluble analogues of CB3717 have been synthesised. […] One such analogue, N-(5-[N-(3,4-dihydro-2- methyl- 4 -oxoquinazolin- 6 -ylmethyl)- N -methylamino]-2-the- noyl) L-glutamic acid (ICI D1694, Figure lii) has been selected for preclinical development (Jackman et al., 1991). The plasma concentrations of urea and creatinine are com- monly measured to assess renal function during toxicological screening of new drugs. However, these parameters are rela- tively insensitive, because, in mice, a rise in plasma urea and creatinine concentration only occurs following the loss of 70-75% of functional renal mass (Everett & Harrison, 1983). Specificity is also poor because an elevation in plasma urea may be caused by 'pre-renal' (increased protein catabolism, gastric or intestinal bleeding and dehydration) or 'post-renal' (obstruction to renal outflow) causes, as well as parenchymal renal damage (Everett & Harrison, 1983). […] In man, the measurement of GFR has become accepted as a routine method for the assessment of renal function. The classical technique using inulin, which is solely cleared from the plasma by glomerular filtration, involves its constant infusion with simultaneous urine collec- tion (Jones, 1985). However, in mice, a constant infusion of inulin and simultaneous urine collection would require anaes- thesia or rigid restraint and complete emptying of the bladder before and at completion of the test (Ragan, 1989). Therefore a b Correspondence: D.I. Jodrell, Clinical Pharmacology, Drug Develop- ment Section, E Block, Institute of Cancer Research, 15 Cotswold Road, Sutton, Surrey SM2 5NG, UK. *Present address: Cancer Research Unit, The Medical School, Uni- versity of Newcastle upon Tyne, Framlington Place, Newcastle upon Tyne NE2 4HH, UK. Received 5 June 1991; and in revised form 19 July 1991. […]

mice = test system: mice; parameters: method as in Jodrell et al., 1990; details: single bolus doses of 500 mg kg-1; ref Jodrell et al., 1990; cited from earlier work
[2] = compared with CB3717; cited from earlier work
C57/DBA2 mice [3] = assay: GFR by 14C-inulin clearance, single timed plasma sample, in drug treated mice; format: in vivo
Text: Br .Cncr(91) 4 3-88?McilnPesLd,19 The renal effects of N1l-propargyl-5,8-dideazafolic acid (CB3717) and a non-nephrotoxic analogue ICI D1694, in mice D.I. Jodrell', D.R. Newelll,*, S.E. Morgan', S. Clinton2, J.P.M. Bensted2, L.R. Hughes3 & A.H. Calvertl,* 'Clinical Pharmacology Team, Drug Development Section, and 2Histopathology Section, Institute of Cancer Research, 15 Cotswold Road, Sutton, Surrey SM2 SNG; and 3ICI Pharmaceuticals, Mereside, Alderley Park, Macclesfield, Cheshire SKIO 4TG, UK. Summary N-(5-[N-(3,4-dihydro-2-methyl-4-oxoquinazolin-6-ylmethyl)-N-methylamino]-2-thenoyl)-L-glutamic acid (ICI D1694) is an analogue of the thymidylate synthase inhibitor, N'?-propargyl-5,8-dideazafolic acid (CB3717). […] Previous studies have shown ICI D1694 to be non-toxic to the kidney following a single administration but its renal effects after chronic administration are unknown. […] The '4C-inulin clearance assay developed was used to show a linear relationship between CB3717 dosage and renal damage (r=-0.989) following a single bolus dose (50-200mgkg-'), in mice. CB3717-induced renal damage is persistent (>6 weeks) and renal scarring was noted. […] However, the clinical use of CB3717 was limited by its nephrotoxicity, which was observ- ed in Phase I studies of both weekly (Vest et al., 1988) and 3-weekly administration schedules (Calvert et al., 1986; Sessa et al., 1988). Renal toxicity manifested primarily as a reduc- tion in glomerular filtration rate (GFR). However, tubular damage was also identified by the measurement of the urin- ary enzymes, N-acetyl glucosaminidase (NAG) and leucine aminopeptidase (LAP). […] In addition, urinary NAG and LAP levels were elevated in 50% of patients studied, although this elevation was not dose related (Calvert et al., 1986). CB3717-induced nephrotoxicity was thought to be due to the compound's relative insolubility at acid pH. […] The plasma concentrations of urea and creatinine are com- monly measured to assess renal function during toxicological screening of new drugs. […]

C57/DBA2 mice [4] = assay: Plasma urea concentration; format: in vivo; details: single dose 100 mg kg-1, at 9, 10, 11 and 14 weeks, small number of animals
Text: Br .Cncr(91) 4 3-88?McilnPesLd,19 The renal effects of N1l-propargyl-5,8-dideazafolic acid (CB3717) and a non-nephrotoxic analogue ICI D1694, in mice D.I. Jodrell', D.R. Newelll,*, S.E. Morgan', S. Clinton2, J.P.M. Bensted2, L.R. Hughes3 & A.H. Calvertl,* 'Clinical Pharmacology Team, Drug Development Section, and 2Histopathology Section, Institute of Cancer Research, 15 Cotswold Road, Sutton, Surrey SM2 SNG; and 3ICI Pharmaceuticals, Mereside, Alderley Park, Macclesfield, Cheshire SKIO 4TG, UK. Summary N-(5-[N-(3,4-dihydro-2-methyl-4-oxoquinazolin-6-ylmethyl)-N-methylamino]-2-thenoyl)-L-glutamic acid (ICI D1694) is an analogue of the thymidylate synthase inhibitor, N'?-propargyl-5,8-dideazafolic acid (CB3717). […] Previous studies have shown ICI D1694 to be non-toxic to the kidney following a single administration but its renal effects after chronic administration are unknown. […] The '4C-inulin clearance assay developed was used to show a linear relationship between CB3717 dosage and renal damage (r=-0.989) following a single bolus dose (50-200mgkg-'), in mice. CB3717-induced renal damage is persistent (>6 weeks) and renal scarring was noted. […] The plasma concentrations of urea and creatinine are com- monly measured to assess renal function during toxicological screening of new drugs. […]

patients = details: cited from earlier work
[5] = parameters: method as in Newell et al., 1986; details: radiolabelled CB3717, mice, 23 days after administration; ref Newell et al., 1986; cited from earlier work
[6] = 100 mg kg-1 weekly for 6 weeks, 1 week after final dose

SMILES: Cc1nc2ccc(CN(C)c3ccc(C(=O)N[C@@H](CCC(=O)O)C(=O)O)s3)cc2c(=O)[nH]1 [ICI D1694, N-(5-[N-(3,4-dihydro-2-methyl-4-oxoquinazolin-6-ylmethyl)-N-methylamino]-2-thenoyl)-L-glutamic acid]
kidney histology (C57/DBA2 mice [1]; [6]): no histological evidence of renal damage
kidney histology (C57/DBA2 mice [1]; 250 mg kg-1 weekly for 6 weeks, 1 week after final dose): normal in 5/5 mice
acute renal toxicity (mice): absence of acute renal toxicity
water solubility [2]: more water soluble

reduction in GFR (C57/DBA2 mice [3]; 200 mg kg-1 single ip bolus, 5 days after (Figure 4)): > 70%
GFR (C57/DBA2 mice [3]; single dose of 10 mg kg-1 (30 mg m-2), 5 days after): normal
plasma biochemistry (urea and creatinine concentrations) (C57/DBA2 mice [4]): normal
kidney histology (C57/DBA2 mice [1]; single dose 10 mg kg-1, 5 days after): normal
kidney histology (C57/DBA2 mice [1]; single dose 50 mg kg-1, 5 days after): focal tubular dilatation
kidney histology (C57/DBA2 mice [1]; single dose 100 mg kg-1, 24 h after administration): tubular dilatation
kidney histology (C57/DBA2 mice [1]; single dose 100 mg kg-1, day 3): focal tubular dilatation
kidney histology (C57/DBA2 mice [1]; single dose 100 mg kg-1, day 20): glomerular atrophy
kidney histology (C57/DBA2 mice [1]; single dose 100 mg kg-1, six weeks (42 days)): deeply pitted scars
SMILES: C#CCN(Cc1ccc2nc(N)[nH]c(=O)c2c1)c1ccc(C(=O)N[C@@H](CCC(=O)O)C(=O)O)cc1 [CB3717, N10-propargyl-5,8-dideazafolic acid]
persistence of renal damage (C57/DBA2 mice [3]; single dose 100 mg kg-1): > 6 weeks
kidney histology (C57/DBA2 mice [1]; [6]): Cortical scarring with tubular dilatation and amorphous casts
kidney histology (C57/DBA2 mice [1]; single dose 100 mg kg-1, 14 weeks, small number of animals): cortical scarring and the presence of amorphous casts
kidney histology (C57/DBA2 mice [1]; single dose 100 mg kg-1, days 5 and 7): Tubular dilatation persisted through days 5 and 7 with increased tubular mitotic activity
courses with reductions in GFR (creatinine clearance) of >20% (patients; 6/17 courses at 400 mg m2 despite alkalinisation of the urine, ref Sessa et al., 1988): 35%
lowest dose causing renal damage (reduction in GFR) (patients; bolus injection at weekly intervals, in man, ref Vest et al., 1988): 10 mg m2
patients with elevated urinary NAG and LAP levels (patients; patients studied, not dose related, ref Calvert et al., 1986): 50%
patients with >20% reduction in GFR (patients; seven of 12 patients receiving more than 400 mg m2, ref Calvert et al., 1986): 58%
radioactivity in the kidneys [5]: still detectable
